Laboratory results reported in PMC6988731 (Bioorganic & medicinal chemistry, 2011).

Biological target: rat TRPV1 (Rattus norvegicus, UniProt O35433)
Experiment: competitive binding assay with [3H]RTX, rat TRPV1 expressed in CHO cells
Details: rTRPV1/CHO; for fold less potent than parent 3: receptor activity (binding affinity and antagonism), relative to 3; for fold reduction in binding affinity and antagonism compared to 50: relative to 50

Sequence of rat TRPV1 (O35433 whole entry): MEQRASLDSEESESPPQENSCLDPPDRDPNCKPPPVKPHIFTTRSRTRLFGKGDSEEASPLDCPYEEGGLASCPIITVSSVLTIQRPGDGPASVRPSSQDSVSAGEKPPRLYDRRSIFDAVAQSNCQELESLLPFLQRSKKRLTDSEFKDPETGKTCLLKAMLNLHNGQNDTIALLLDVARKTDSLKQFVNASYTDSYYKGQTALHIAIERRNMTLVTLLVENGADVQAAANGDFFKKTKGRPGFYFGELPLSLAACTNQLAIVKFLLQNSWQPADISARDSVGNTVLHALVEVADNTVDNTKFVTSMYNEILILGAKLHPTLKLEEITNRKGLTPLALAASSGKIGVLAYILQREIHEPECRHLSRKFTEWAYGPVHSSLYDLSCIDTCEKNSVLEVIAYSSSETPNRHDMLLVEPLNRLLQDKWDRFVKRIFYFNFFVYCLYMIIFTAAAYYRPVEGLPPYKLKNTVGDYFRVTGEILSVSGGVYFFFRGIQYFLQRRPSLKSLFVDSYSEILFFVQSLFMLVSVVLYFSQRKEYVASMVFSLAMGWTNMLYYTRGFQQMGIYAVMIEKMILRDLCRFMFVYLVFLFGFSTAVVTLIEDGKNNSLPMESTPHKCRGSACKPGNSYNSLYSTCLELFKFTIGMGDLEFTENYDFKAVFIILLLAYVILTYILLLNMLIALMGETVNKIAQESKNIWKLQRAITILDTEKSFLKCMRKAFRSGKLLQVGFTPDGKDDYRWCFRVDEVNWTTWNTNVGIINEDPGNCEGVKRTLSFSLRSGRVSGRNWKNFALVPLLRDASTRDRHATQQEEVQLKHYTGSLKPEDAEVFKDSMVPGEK

fold less potent than parent 3	fold reduction in binding affinity and antagonism compared to 50	SMILES
10 fold	–	CC(C(=O)NCc1ccc(I)cc1)c1ccc(NS(C)(=O)=O)c(F)c1 (stereo not shown) [compound 24, 2-(3-Fluoro-4-methanesulfonylamino-phenyl)-N-(4-iodo-benzyl)-propionamide]
ca. 10 fold	–	Cc1ccc(CCCNC(=O)C(C)c2ccc(NS(C)(=O)=O)c(F)c2)cc1C (stereo not shown) [compound 40, N-[3-(3,4-Dimethylphenyl)propyl]-2-[3-fluoro-4-(methylsulfonylamino)phenyl]propionamide]
–	5–10 fold	CC(C(=O)NCC=C1c2ccccc2CCc2ccccc21)c1ccc(NS(C)(=O)=O)c(F)c1 (stereo not shown) [compound 59, N-[2-(10,11-Dihydro-5H-dibenzo[a,d]cyclohepten-5-yliden)ethyl]-2-[3-fluoro-4-(methylsulfonylamino)phenyl]propionamide]
–	5–10 fold	CC(C(=O)NCC=C1c2ccccc2C=Cc2ccccc21)c1ccc(NS(C)(=O)=O)c(F)c1 (stereo not shown) [compound 60, N-[2-Dibenzo[a,d]cyclohepten-5-ylidene-ethyl]-2-(3-fluoro-4-methylsulfonylamino-phenyl)-propionamide]
